Results as given in patent US20060281687A1, “Cyclin groove inhibitors” (priority 2003, published 2006).
Values belong to the compound of their own block, whether it stands above or below them. Non-standard residues stand in square brackets, D forms with d. Residues, ends and D or L forms follow the SMILES beside them. *: point of attachment. X14 = O=C(c1ccc(-n2cncn2)c([N+](=O)[O-])c1)*; X3 = Cc1nc(C(=O)*)nn1-c1ccc([N+](=O)[O-])cc1; X2 = CC(C)n1c(C(F)(F)F)nc2cc(C(=O)*)ccc21; X6 = O=C(COn1c(-c2ccccc2)nc2ccc(Cl)cc21)*; X10 = O=C(c1c(-c2ccccc2)nc2cccc(Cl)n12)*; X4 = Cc1nc(C(=O)*)nn1-c1cccc(C(F)(F)F)c1; X8 = COc1cc(-n2nc(C(=O)*)nc2C)c(Cl)cc1Cl; X11 = Cc1nc(C(=O)*)nn1-c1cc(Cl)cc(Cl)c1; Phe(4-F) = N[C@@H](Cc1ccc(F)cc1)C(=O)O; X13 = Cc1nc(C(=O)*)nn1-c1ccc(Cl)cc1Cl; X9 = O=C(COn1c(-c2ccccc2)nc2ccccc21)*; X5 = Cc1nc(C(=O)*)nn1-c1ccc(Cl)cc1; X7 = O=C(c1ccc2nc(-n3cccc3)sc2c1)*; X1 = Cc1nc(C(=O)*)nn1-c1ccc(F)cc1; X12 = O=C(c1ccc(N2CCNC2=S)cc1)*

Columns and labels:
[1] = target: T1, CDK2/cyclin A (Homo sapiens, UniProt P20248); assay: Functional kinase assay (phosphorylation of GST-pRb(773-928)); type: biochemical; details: recombinant human CDK2/cyclin A; GST-pRb(773-928) substrate; 100 μM ATP; 30 min at 30° C.; read-out: Inhibitory activity IC50 ± SD, Functional kinase assay
Method: CDK2/cyclin A kinase assays (phosphorylation of natural retinoblastoma protein (pRb)) were performed in 96-well plates using recombinant proteins. To each well were added: 10 μL assay buffer (50 mM HEPES pH 7.4, 20 mM β-glycerophosphate, 5 mM EGTA, 2 mM dithiothreitol, 1 mM NaVO3, and 20 mM MgCl2), 5 μL GST-pRb(773-928) substrate stock solution,10 μL test compound solution, 10 μL (2-5 μg protein) of purified recombinant human CDK2/cyclin A stock. The reaction was initiated by addition of 10 μL/well Mg/ATP mix (15 mM MgCl2, 100 μM ATP with 30-50 kBq per well of [γ-^32P]-ATP) and mixtures were incubated with shaking for 30 min at 30° C. Reactions were stopped on ice, followed by addition of 5 μL/well of glutathione-Sepharose 4B (Amersham Biosciences) and further incubation with shaking for 30 min at room temperature. The mixtures were then filtered on Whatman GF/C filterplates and washed 4 times with 0.2 mL/well of 50 mM HEPES containing 1 mM ATP. Plates were dried, sealed, and scintillant (Microscint 40) was added. Incorporated radioactivity was measured using a scintillation counter (TopCount, Packard Instruments, Pangbourne, Berks, UK). Half-maximal inhibition (IC50) was calculated from dose—response curves.

[2] = target: T1, CDK2/cyclin A; assay: Competitive binding assay (fluorescence polarisation, fluorescein tracer peptide); details: purified recombinant human CDK2/cyclin A; tracer fluorescein-Ahx-His-Ala-Lys-Arg-Arg-Leu-Ile-Phe-NH2; 1 h room temperature; read-out: Inhibitory activity IC50 ± SD, Competitive binding assay
Method: Competitive Binding Assay
This assay was performed using half-area black 96-well microtitre plates. To each well were added: 10 μL assay buffer (25 mM HEPES pH 7, 10 mM NaCl, 0.01% Nonidet P-40, 1 mM dithiothreitol), 10 μL test compound solution (in 10% aq DMSO), 10 μL CDK2/cyclin A (ca. 2 μg purified recombinant human kinase complex) in assay buffer, and 10 μL tracer peptide solution (150 nM fluorescein-Ahx-His-Ala-Lys-Arg-Arg-Leu-Ile-Phe-NH2; refer McInnes, C. et al., 2003, Curr. Med. Chem. Anti-Cancer Agents, 3, 57; Atkinson, G. E. et al., 2002, Bioorg. Med. Chem. Lett., 12, 2501) in assay buffer. After incubation with shaking for 1 h at room temperature, fluorescence polarisation at 485-520 nm was measured using a Tecan Ultra reader. Half-maximal inhibition (IC50) was calculated from dose—response curves.

SMILES: Cc1nc(C(=O)N[C@@H](CCCNC(=N)N)C(=O)N[C@@H](CC(C)C)C(=O)N[C@@H](CC(N)=O)C(=O)N[C@@H](Cc2ccc(F)cc2)C(N)=O)nn1-c1ccc(Cl)cc1 [Compound 3] (X5-RLN[Phe(4-F)]-NH2)
IC50 [1]: 4.3 ± 2.1 µM
IC50 [2]: 4.1 ± 1.3 µM

SMILES: CC(C)C[C@H](NC(=O)[C@H](CCCNC(=N)N)NC(=O)c1ccc(N2CCNC2=S)cc1)C(=O)N[C@@H](CC(N)=O)C(=O)N[C@@H](Cc1ccc(F)cc1)C(N)=O [Compound 5] (X12-RLN[Phe(4-F)]-NH2)
IC50 [1]: 19 ± 3 µM
IC50 [2]: 5.8 ± 1.6 µM

SMILES: Cc1nc(C(=O)N[C@@H](CCCNC(=N)N)C(=O)N[C@@H](CC(C)C)C(=O)N[C@@H](CC(N)=O)C(=O)N[C@@H](Cc2ccc(F)cc2)C(N)=O)nn1-c1ccc(F)cc1 [Compound 6] (X1-RLN[Phe(4-F)]-NH2)
IC50 [1]: 4.4 ± 0.8 µM
IC50 [2]: 6.1 ± 1.2 µM

SMILES: Cc1nc(C(=O)N[C@@H](CCCNC(=N)N)C(=O)N[C@@H](CC(C)C)C(=O)N[C@@H](CC(N)=O)C(=O)N[C@@H](Cc2ccc(F)cc2)C(N)=O)nn1-c1ccc([N+](=O)[O-])cc1 [Compound 7] (X3-RLN[Phe(4-F)]-NH2)
IC50 [1]: 5.4 ± 0.9 µM
IC50 [2]: 6.4 ± 1.8 µM

SMILES: CC(C)C[C@H](NC(=O)[C@H](CCCNC(=N)N)NC(=O)COn1c(-c2ccccc2)nc2ccccc21)C(=O)N[C@@H](CC(N)=O)C(=O)N[C@@H](Cc1ccc(F)cc1)C(N)=O [Compound 9] (X9-RLN[Phe(4-F)]-NH2)
IC50 [1]: 37 ± 6 µM
IC50 [2]: 15 ± 2 µM

SMILES: Cc1nc(C(=O)N[C@@H](CCCNC(=N)N)C(=O)N[C@@H](CC(C)C)C(=O)N[C@@H](CC(N)=O)C(=O)N[C@@H](Cc2ccc(F)cc2)C(N)=O)nn1-c1cc(Cl)cc(Cl)c1 [Compound 10] (X11-RLN[Phe(4-F)]-NH2)
IC50 [1]: 3.7 ± 0.2 µM
IC50 [2]: 2.1 ± 0.2 µM

SMILES: CC(C)C[C@H](NC(=O)[C@H](CCCNC(=N)N)NC(=O)c1ccc2c(c1)nc(C(F)(F)F)n2C(C)C)C(=O)N[C@@H](CC(N)=O)C(=O)N[C@@H](Cc1ccc(F)cc1)C(N)=O [Compound 13] (X2-RLN[Phe(4-F)]-NH2)
IC50 [1]: 21.1 ± 7 µM
IC50 [2]: 2.6 ± 0.4 µM

SMILES: Cc1nc(C(=O)N[C@@H](CCCNC(=N)N)C(=O)N[C@@H](CC(C)C)C(=O)N[C@@H](CC(N)=O)C(=O)N[C@@H](Cc2ccc(F)cc2)C(N)=O)nn1-c1cccc(C(F)(F)F)c1 [Compound 14] (X4-RLN[Phe(4-F)]-NH2)
IC50 [1]: 3.65 ± 0.92 µM
IC50 [2]: 2.8 ± 0.42 µM

SMILES: Cc1cc(NC(=O)C2CCCCC2C(=O)N[C@@H](CC(C)C)C(=O)N[C@@H](CC(N)=O)C(=O)N[C@@H](Cc2ccc(F)cc2)C(N)=O)no1 (stereo partly shown) [Compound 15]
IC50 [1]: 87 ± 14 µM
IC50 [2]: 219 ± 10 µM

SMILES: CC(C)C[C@H](NC(=O)[C@H](CCCNC(=N)N)NC(=O)[C@@H](N)CCCNC(=N)N)C(=O)Nc1cccc(Oc2ccccc2)c1 [Compound 24]
IC50 [1]: 21.9 ± 4.9 µM
IC50 [2]: 56.9 ± 1.9 µM

SMILES: CC(C)C[C@@H](CNc1cccc(Oc2ccccc2)c1)NC(=O)[C@H](CCCNC(=N)N)NC(=O)[C@@H](N)CCCNC(=N)N [Compound 29]
IC50 [1]: 8.55 ± 2.11 µM
IC50 [2]: 22.7 ± 2.72 µM

SMILES: CC(C)C[C@@H](CNc1cccc(OCc2ccccc2)c1)NC(=O)[C@H](CCCNC(=N)N)NC(=O)[C@@H](N)CCCNC(=N)N [Compound 30]
IC50 [1]: 8.37 ± 4.24 µM
IC50 [2]: 58.2 ± 3.82 µM

Further compounds by falling IC50 [1], results first:

IC50 [1]: 53 ± 25 µM
IC50 [2]: 12 ± 2 µM
SMILES: CC(C)C[C@H](NC(=O)[C@H](CCCNC(=N)N)NC(=O)c1c(-c2ccccc2)nc2cccc(Cl)n12)C(=O)N[C@@H](CC(N)=O)C(=O)N[C@@H](Cc1ccc(F)cc1)C(N)=O [Compound 1] (X10-RLN[Phe(4-F)]-NH2)

IC50 [1]: 30 ± 16 µM
IC50 [2]: 12 ± 2 µM
SMILES: CC(C)C[C@H](NC(=O)[C@H](CCCNC(=N)N)NC(=O)COn1c(-c2ccccc2)nc2ccc(Cl)cc21)C(=O)N[C@@H](CC(N)=O)C(=O)N[C@@H](Cc1ccc(F)cc1)C(N)=O [Compound 11] (X6-RLN[Phe(4-F)]-NH2)

IC50 [1]: 29.8 ± 12 µM
IC50 [2]: 35 ± 2.03 µM
SMILES: CC(C)C[C@H](NC(=O)[C@H](CCCNC(=N)N)NC(=O)[C@@H](N)CCCNC(=N)N)C(=O)Nc1cccc(OCc2ccccc2)c1 [Compound 25]

IC50 [1]: 26 ± 5 µM
IC50 [2]: 28 ± 4 µM
SMILES: CC(C)C[C@H](NC(=O)[C@H](CCCNC(=N)N)NC(=O)c1ccc(-n2cncn2)c([N+](=O)[O-])c1)C(=O)N[C@@H](CC(N)=O)C(=O)N[C@@H](Cc1ccc(F)cc1)C(N)=O [Compound 8] (X14-RLN[Phe(4-F)]-NH2)

IC50 [1]: 15.3 ± 3.1 µM
IC50 [2]: 4.8 ± 0.4 µM
SMILES: CC(C)C[C@H](NC(=O)[C@H](CCCNC(=N)N)NC(=O)c1ccc2nc(-n3cccc3)sc2c1)C(=O)N[C@@H](CC(N)=O)C(=O)N[C@@H](Cc1ccc(F)cc1)C(N)=O [Compound 12] (X7-RLN[Phe(4-F)]-NH2)

IC50 [1]: 11 ± 7 µM
IC50 [2]: 0.93 ± 0.05 µM
SMILES: COc1cc(-n2nc(C(=O)N[C@@H](CCCNC(=N)N)C(=O)N[C@@H](CC(C)C)C(=O)N[C@@H](CC(N)=O)C(=O)N[C@@H](Cc3ccc(F)cc3)C(N)=O)nc2C)c(Cl)cc1Cl [Compound 2] (X8-RLN[Phe(4-F)]-NH2)

IC50 [1]: 8.81 ± 1.08 µM
IC50 [2]: 4.7 ± 0.7 µM
SMILES: CC(C)C[C@H](NC(=O)[C@H](CCCNC(=N)N)NC(=O)[C@@H](N)CCCNC(=N)N)C(=O)NCc1cccc(Oc2ccccc2)c1 [Compound 26]

IC50 [1]: 6.4 ± 0.3 µM
IC50 [2]: 3.6 ± 0.6 µM
SMILES: Cc1nc(C(=O)N[C@@H](CCCNC(=N)N)C(=O)N[C@@H](CC(C)C)C(=O)N[C@@H](CC(N)=O)C(=O)N[C@@H](Cc2ccc(F)cc2)C(N)=O)nn1-c1ccc(Cl)cc1Cl [Compound 4] (X13-RLN[Phe(4-F)]-NH2)
